# Data: ChEMBL document CHEMBL4813934, “Investigation of Selected Flavonoid Derivatives as Potent FLT3 Inhibitors for the Potential Treatment of Acute Myeloid Leukemia” (J Nat Prod, 2021)
# Activity calls are given as the source filed them. The calls are words filed in the database; no cut-off is given here.
# Key:
# [1] = biological target: T1, Receptor-type tyrosine-protein kinase FLT3 (Homo sapiens, UniProt P36888); test: Inhibition of recombinant His-tagged human FLT3 (564 to 958 residues) expressed in baculovirus expression system using tyr 02 as substrate incubated for 1 hr by Z'-LYTE assay
# T1 sequence (P36888 whole entry): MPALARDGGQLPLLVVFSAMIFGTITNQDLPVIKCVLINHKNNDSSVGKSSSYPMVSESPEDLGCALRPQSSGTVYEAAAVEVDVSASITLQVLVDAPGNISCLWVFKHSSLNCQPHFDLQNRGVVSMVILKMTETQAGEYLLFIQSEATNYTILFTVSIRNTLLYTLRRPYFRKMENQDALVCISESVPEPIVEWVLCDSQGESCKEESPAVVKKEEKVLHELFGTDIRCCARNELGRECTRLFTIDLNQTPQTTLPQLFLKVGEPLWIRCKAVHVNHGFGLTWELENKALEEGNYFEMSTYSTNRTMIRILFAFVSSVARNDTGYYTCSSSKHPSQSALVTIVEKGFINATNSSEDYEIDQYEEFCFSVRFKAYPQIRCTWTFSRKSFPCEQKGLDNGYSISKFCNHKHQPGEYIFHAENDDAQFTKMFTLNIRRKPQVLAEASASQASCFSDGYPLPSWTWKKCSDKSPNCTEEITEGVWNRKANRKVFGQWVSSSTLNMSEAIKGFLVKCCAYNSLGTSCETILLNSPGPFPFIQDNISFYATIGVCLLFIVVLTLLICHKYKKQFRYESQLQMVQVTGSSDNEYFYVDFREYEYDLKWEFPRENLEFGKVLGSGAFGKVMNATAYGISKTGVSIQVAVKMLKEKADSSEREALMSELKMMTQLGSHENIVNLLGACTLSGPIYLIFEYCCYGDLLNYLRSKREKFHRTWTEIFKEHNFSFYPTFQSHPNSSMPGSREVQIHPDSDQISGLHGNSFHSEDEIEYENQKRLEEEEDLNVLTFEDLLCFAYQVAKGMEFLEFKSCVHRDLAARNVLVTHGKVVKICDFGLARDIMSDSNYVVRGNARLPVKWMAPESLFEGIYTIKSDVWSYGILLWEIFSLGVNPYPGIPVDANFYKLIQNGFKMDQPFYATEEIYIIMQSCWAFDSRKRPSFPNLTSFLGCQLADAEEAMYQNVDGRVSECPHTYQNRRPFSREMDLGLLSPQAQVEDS
# [2] = biological target: Receptor-type tyrosine-protein kinase FLT3 (Homo sapiens) (UniProt P36888); test: Inhibition of recombinant His-tagged human FLT3 (564 to 958 residues) expressed in baculovirus expression system at 10 uM using tyr 02 as substrate incubated for 1 hr by Z'-LYTE assay relative to control
# [3] = biological target: Receptor-type tyrosine-protein kinase FLT3 (Homo sapiens, UniProt P36888, ITD); test: Inhibition of recombinant N-terminal GST/His6-tagged human FLT3 ITD mutant (571 to 993 residues) expressed in Sf9 insect cells incubated for 1 hr by LanthaScreen assay
# [4] = biological target: Receptor-type tyrosine-protein kinase FLT3 (Homo sapiens, UniProt P36888, D835Y); test: Inhibition of recombinant His-tagged human FLT3 D835Y mutant (564 to 958 residues) expressed in baculovirus expression system using tyr 02 as substrate incubated for 1 hr by Z'-LYTE assay
# MOLM-13 [5] = test: Cytotoxicity against human MOLM-13 cells assessed as reduction in cell viability measured after 72 hrs by MTT assay; format: functional, cell-based; details: MOLM-13, 72 h
# MV4-11 [6] = test: Cytotoxicity against human MV4-11 cells assessed as reduction in cell viability measured after 72 hrs by MTT assay; format: functional, cell-based; details: MV4-11, 72 h
# MOLM-13 [7] = test: Cell cycle arrest in human MOLM-13 cells assessed as accumulation at G0/G1 phase at 0.3 to 3 uM measured after 72 hrs by propidium iodide/RNaseA staining based flow cytometry analysis; format: functional; details: dose 0.3-3 µM
# MV4-11 [8] = test: Cell cycle arrest in human MV4-11 cells assessed as increase in accumulation at sub-G1 phase at 30 uM measured after 72 hrs by propidium iodide/RNaseA staining based flow cytometry analysis; format: functional
# MOLM-13 [9] = test: Cell cycle arrest in human MOLM-13 cells assessed as accumulation at sub-G1 phase at 0.3 uM measured after 72 hrs by propidium iodide/RNaseA staining based flow cytometry analysis (reference value: 13.76 %); format: functional
# MOLM-13 [10] = test: Cell cycle arrest in human MOLM-13 cells assessed as accumulation at G0/G1 phase at 0.3 uM measured after 72 hrs by propidium iodide/RNaseA staining based flow cytometry analysis (reference value: 53.92 %); format: functional
# MOLM-13 [11] = test: Cell cycle arrest in human MOLM-13 cells assessed as accumulation at S phase at 0.3 uM measured after 72 hrs by propidium iodide/RNaseA staining based flow cytometry analysis (reference value: 11.14 %); format: functional
# MOLM-13 [12] = test: Cell cycle arrest in human MOLM-13 cells assessed as accumulation at G2/M phase at 0.3 uM measured after 72 hrs by propidium iodide/RNaseA staining based flow cytometry analysis (reference value: 20.36 %); format: functional
# MOLM-13 [13] = test: Cell cycle arrest in human MOLM-13 cells assessed as accumulation at sub-G1 phase at 3 uM measured after 72 hrs by propidium iodide/RNaseA staining based flow cytometry analysis (reference value: 13.76 %); format: functional
# MOLM-13 [14] = test: Cell cycle arrest in human MOLM-13 cells assessed as accumulation at G0/G1 phase at 3 uM measured after 72 hrs by propidium iodide/RNaseA staining based flow cytometry analysis (reference value: 53.92 %); format: functional
# MOLM-13 [15] = test: Cell cycle arrest in human MOLM-13 cells assessed as accumulation at S phase at 3 uM measured after 72 hrs by propidium iodide/RNaseA staining based flow cytometry analysis (reference value: 11.14 %); format: functional
# MOLM-13 [16] = test: Cell cycle arrest in human MOLM-13 cells assessed as accumulation at G2/M phase at 3 uM measured after 72 hrs by propidium iodide/RNaseA staining based flow cytometry analysis (reference value: 20.36 %); format: functional
# MOLM-13 [17] = test: Cell cycle arrest in human MOLM-13 cells assessed as accumulation at sub-G1 phase at 10 uM measured after 72 hrs by propidium iodide/RNaseA staining based flow cytometry analysis (reference value: 13.76 %); format: functional
# MOLM-13 [18] = test: Cell cycle arrest in human MOLM-13 cells assessed as accumulation at G0/G1 phase at 10 uM measured after 72 hrs by propidium iodide/RNaseA staining based flow cytometry analysis (reference value: 53.92 %); format: functional
# MOLM-13 [19] = test: Cell cycle arrest in human MOLM-13 cells assessed as accumulation at S phase at 10 uM measured after 72 hrs by propidium iodide/RNaseA staining based flow cytometry analysis (reference value: 11.14 %); format: functional
# MOLM-13 [20] = test: Cell cycle arrest in human MOLM-13 cells assessed as accumulation at G2/M phase at 10 uM measured after 72 hrs by propidium iodide/RNaseA staining based flow cytometry analysis (reference value: 20.36 %); format: functional
# MOLM-13 [21] = test: Cell cycle arrest in human MOLM-13 cells assessed as accumulation at sub-G1 phase at 30 uM measured after 72 hrs by propidium iodide/RNaseA staining based flow cytometry analysis (reference value: 13.76 %); format: functional
# MOLM-13 [22] = test: Cell cycle arrest in human MOLM-13 cells assessed as accumulation at G0/G1 phase at 30 uM measured after 72 hrs by propidium iodide/RNaseA staining based flow cytometry analysis (reference value: 53.92 %); format: functional
# MOLM-13 [23] = test: Cell cycle arrest in human MOLM-13 cells assessed as accumulation at S phase at 30 uM measured after 72 hrs by propidium iodide/RNaseA staining based flow cytometry analysis (reference value: 11.14 %); format: functional
# MOLM-13 [24] = test: Cell cycle arrest in human MOLM-13 cells assessed as accumulation at G2/M phase at 30 uM measured after 72 hrs by propidium iodide/RNaseA staining based flow cytometry analysis (reference value: 20.36 %); format: functional
# MV4-11 [25] = test: Cell cycle arrest in human MV4-11 cells assessed as accumulation at sub-G1 phase at 0.3 uM measured after 72 hrs by propidium iodide/RNaseA staining based flow cytometry analysis (reference value: 7.43 %); format: functional
# MV4-11 [26] = test: Cell cycle arrest in human MV4-11 cells assessed as accumulation at G0/G1 phase at 0.3 uM measured after 72 hrs by propidium iodide/RNaseA staining based flow cytometry analysis (reference value: 50.06 %); format: functional
# MV4-11 [27] = test: Cell cycle arrest in human MV4-11 cells assessed as accumulation at S phase at 0.3 uM measured after 72 hrs by propidium iodide/RNaseA staining based flow cytometry analysis (reference value: 17.51 %); format: functional
# MV4-11 [28] = test: Cell cycle arrest in human MV4-11 cells assessed as accumulation at G2/M phase at 0.3 uM measured after 72 hrs by propidium iodide/RNaseA staining based flow cytometry analysis (reference value: 26.26 %); format: functional
# MV4-11 [29] = test: Cell cycle arrest in human MV4-11 cells assessed as accumulation at sub-G1 phase at 3 uM measured after 72 hrs by propidium iodide/RNaseA staining based flow cytometry analysis (reference value: 7.43 %); format: functional
# MV4-11 [30] = test: Cell cycle arrest in human MV4-11 cells assessed as accumulation at G0/G1 phase at 3 uM measured after 72 hrs by propidium iodide/RNaseA staining based flow cytometry analysis (reference value: 50.06 %); format: functional
# MV4-11 [31] = test: Cell cycle arrest in human MV4-11 cells assessed as accumulation at S phase at 3 uM measured after 72 hrs by propidium iodide/RNaseA staining based flow cytometry analysis (reference value: 17.51 %); format: functional
# MV4-11 [32] = test: Cell cycle arrest in human MV4-11 cells assessed as accumulation at G2/M phase at 3 uM measured after 72 hrs by propidium iodide/RNaseA staining based flow cytometry analysis (reference value: 26.26 %); format: functional
# MV4-11 [33] = test: Cell cycle arrest in human MV4-11 cells assessed as accumulation at sub-G1 phase at 10 uM measured after 72 hrs by propidium iodide/RNaseA staining based flow cytometry analysis (reference value: 7.43 %); format: functional
# MV4-11 [34] = test: Cell cycle arrest in human MV4-11 cells assessed as accumulation at G0/G1 phase at 10 uM measured after 72 hrs by propidium iodide/RNaseA staining based flow cytometry analysis (reference value: 50.06 %); format: functional
# MV4-11 [35] = test: Cell cycle arrest in human MV4-11 cells assessed as accumulation at S phase at 10 uM measured after 72 hrs by propidium iodide/RNaseA staining based flow cytometry analysis (reference value: 17.51 %); format: functional
# MV4-11 [36] = test: Cell cycle arrest in human MV4-11 cells assessed as accumulation at G2/M phase at 10 uM measured after 72 hrs by propidium iodide/RNaseA staining based flow cytometry analysis (reference value: 26.26 %); format: functional
# MV4-11 [37] = test: Cell cycle arrest in human MV4-11 cells assessed as accumulation at sub-G1 phase at 30 uM measured after 72 hrs by propidium iodide/RNaseA staining based flow cytometry analysis (reference value: 7.43 %); format: functional
# MV4-11 [38] = test: Cell cycle arrest in human MV4-11 cells assessed as accumulation at G0/G1 phase at 30 uM measured after 72 hrs by propidium iodide/RNaseA staining based flow cytometry analysis (reference value: 50.06 %); format: functional
# MV4-11 [39] = test: Cell cycle arrest in human MV4-11 cells assessed as accumulation at S phase at 30 uM measured after 72 hrs by propidium iodide/RNaseA staining based flow cytometry analysis (reference value: 17.51 %); format: functional
# MV4-11 [40] = test: Cell cycle arrest in human MV4-11 cells assessed as accumulation at G2/M phase at 30 uM measured after 72 hrs by propidium iodide/RNaseA staining based flow cytometry analysis (reference value: 26.26 %); format: functional
smiles,measurement,setting,value
COc1c(O)cc2oc(-c3ccc(O)cc3)cc(=O)c2c1O [HISPIDULIN],IC50,[1],440 nM
same,inhibition,[2],> 80%
same,IC50,[3],390 nM
same,IC50,[4],230 nM
same,IC50,MOLM-13 [5],7000 nM
same,IC50,MV4-11 [6],6800 nM
same,Activity,MOLM-13 [7],Active
same,Activity,MV4-11 [8],Active
COc1ccc(-c2cc(=O)c3c(O)c(OC)c(O)cc3o2)cc1 [PECTOLINARIGENIN],IC50,[1],650 nM
same,inhibition,[2],> 80%
same,IC50,[3],880 nM
same,IC50,[4],580 nM
same,IC50,MOLM-13 [5],5900 nM
same,IC50,MV4-11 [6],7900 nM
COc1ccc(-c2cc(=O)c3c(O)c(OC)c(OC)cc3o2)cc1 [SALVIGENIN],IC50,[1],550 nM
same,inhibition,[2],> 80%
same,IC50,[3],580 nM
same,IC50,[4],290 nM
same,IC50,MOLM-13 [5],2600 nM
same,IC50,MV4-11 [6],2600 nM
same,Activity,MOLM-13 [9],9.93%
same,Activity,MOLM-13 [10],59.22%
same,Activity,MOLM-13 [11],10.48%
same,Activity,MOLM-13 [12],20.25%
same,Activity,MOLM-13 [13],19.21%
same,Activity,MOLM-13 [14],59.78%
same,Activity,MOLM-13 [15],5.26%
same,Activity,MOLM-13 [16],15.19%
same,Activity,MOLM-13 [17],40.89%
same,Activity,MOLM-13 [18],42.74%
same,Activity,MOLM-13 [19],5.4%
same,Activity,MOLM-13 [20],11.15%
same,Activity,MOLM-13 [21],43.19%
same,Activity,MOLM-13 [22],40.99%
same,Activity,MOLM-13 [23],4.05%
same,Activity,MOLM-13 [24],11.69%
same,Activity,MV4-11 [25],6.78%
same,Activity,MV4-11 [26],50.11%
same,Activity,MV4-11 [27],20.59%
same,Activity,MV4-11 [28],25.07%
same,Activity,MV4-11 [29],6.83%
same,Activity,MV4-11 [30],70.55%
same,Activity,MV4-11 [31],8.74%
same,Activity,MV4-11 [32],14.37%
same,Activity,MV4-11 [33],14.62%
same,Activity,MV4-11 [34],69.17%
same,Activity,MV4-11 [35],6.62%
same,Activity,MV4-11 [36],10.19%
same,Activity,MV4-11 [37],9.4%
same,Activity,MV4-11 [38],73.88%
same,Activity,MV4-11 [39],5.91%
same,Activity,MV4-11 [40],11.25%
same,Activity,MOLM-13 [7],Active
same,Activity,MV4-11 [8],Active
